Usually IC50 stands for the concentration needed to halve the response being measured.

Each structure is given as a SMILES string.

The experiment deals with T1, SF9 affinity purified rat FPT (Rattus norvegicus, UniProt Q02293+Q04631).
T1 construct: made in house; host or cells: Sf9 insect cells
In words: PFT (FPT) inhibitory activity assay, radiolabeled farnesyl pyrophosphate and biotinyl peptide, streptavidin beads. It is filed as biochemical. To be noted: HEPES buffer pH 7.4, 30° C., 30 minutes; read-out: FTase IC50. The gist of the method:
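Rat FPT expressed in SF9 cells was incubated 30 minutes at 30° C. with compound (in 10% DMSO), radiolabeled farnesyl pyrophosphate and biotinylated peptide. Buffer: HEPES pH 7.4, ZnCl2 20 μM, MgCl2 and DTT 5 mM each, 0.1% PEG 8000, 5 mM potassium phosphate (also run without phosphate). Product captured on streptavidin beads in magnesium acetate/H3PO4 stop buffer.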
Take `C[C@@H](O)CNC(=O)c1ccc(SCc2c(O[C@H](Cn3ccnc3)c3ccccc3)ccc3c2CCCC3=O)cc1` [Compound 195, N-[(2R)-2-Hydroxypropyl]-4-{[(2-{[(1S)-2-(1H-imidazol-1-yl)-1-phenylethyl]oxy}-5-oxo-5,6,7,8-tetrahydro-1-naphthalenyl)methyl]sulfanyl}benzamide]: the IC50 came to 0.2 nM.

`C[C@H](O)CNC(=O)c1ccc(SCc2c(O[C@H](Cn3ccnc3)c3ccccc3)ccc3c2CCCC3=O)cc1` [Compound 196, N-[(2S)-2-Hydroxypropyl]-4-{[(2-{[(1S)-2-(1H-imidazol-1-yl)-1-phenylethyl]oxy}-5-oxo-5,6,7,8-tetrahydro-1-naphthalenyl)methyl]sulfanyl}benzamide]: the IC50 was 0.2 nM. As to `C[C@H](O)CNC(=O)c1cccc(SCc2c(O[C@H](Cn3ccnc3)c3ccccc3)ccc3c2CCCC3=O)c1` [Compound 197, N-[(2S)-2-Hydroxypropyl]-3-{[(2-{[(1S)-2-(1H-imidazol-1-yl)-1-phenylethyl]oxy}-5-oxo-5,6,7,8-tetrahydro-1-naphthalenyl)methyl]sulfanyl}benzamide], the IC50 was 0.2 nM. In the case of `C[C@H](O)CNC(=O)c1ccccc1SCc1c(O[C@H](Cn2ccnc2)c2ccccc2)ccc2c1CCCC2=O` [Compound 198, N-[(2S)-2-Hydroxypropyl]-2-{[(2-{[(1S)-2-(1H-imidazol-1-yl)-1-phenylethyl]oxy}-5-oxo-5,6,7,8-tetrahydro-1-naphthalenyl)methyl]sulfanyl}benzamide] it was 0.2 nM; in that of `C[C@H](O)CNC(=O)c1ccc(S(=O)(=O)Cc2c(O[C@H](Cn3ccnc3)c3ccccc3)ccc3c2CCCC3=O)cc1` [Compound 199, N-[(2S)-2-Hydroxypropyl]-4-{[(2-{[(1S)-2-(1H-imidazol-1-yl)-1-phenylethyl]oxy}-5-oxo-5,6,7,8-tetrahydro-1-naphthalenyl)methyl]sulfonyl}benzamide], 0.4 nM. Then `C[C@H](O)CNC(=O)c1cccc(S(=O)(=O)Cc2c(O[C@H](Cn3ccnc3)c3ccccc3)ccc3c2CCCC3=O)c1` [Compound 200, N-[(2S)-2-Hydroxypropyl]-3-{[(2-{[(1S)-2-(1H-imidazol-1-yl)-1-phenylethyl]oxy}-5-oxo-5,6,7,8-tetrahydro-1-naphthalenyl)methyl]sulfonyl}benzamide], with 0.24 nM; and `C[C@H](O)CNC(=O)c1ccccc1S(=O)(=O)Cc1c(O[C@H](Cn2ccnc2)c2ccccc2)ccc2c1CCCC2=O` [Compound 201, N-[(2S)-2-Hydroxypropyl]-2-{[(2-{[(1S)-2-(1H-imidazol-1-yl)-1-phenylethyl]oxy}-5-oxo-5,6,7,8-tetrahydro-1-naphthalenyl)methyl]sulfonyl}benzamide], with 0.2 nM; and `C[C@@H](O)CNC(=O)c1ccccc1S(=O)(=O)Cc1c(O[C@H](Cn2ccnc2)c2ccccc2)ccc2c1CCCC2=O` [Compound 202, N-[(2R)-2-Hydroxypropyl]-2-{[(2-{[(1S)-2-(1H-imidazol-1-yl)-1-phenylethyl]oxy}-5-oxo-5,6,7,8-tetrahydro-1-naphthalenyl)methyl]sulfonyl}benzamide], with 0.2 nM. In the case of `C[C@@H](O)CNC(=O)c1ccc(S(=O)(=O)Cc2c(O[C@H](Cn3ccnc3)c3ccccc3)ccc3c2CCCC3=O)cc1` [Compound 203, N-[(2R)-2-Hydroxypropyl]-4-{[(2-{[(1S)-2-(1H-imidazol-1-yl)-1-phenylethyl]oxy}-5-oxo-5,6,7,8-tetrahydro-1-naphthalenyl)methyl]sulfonyl}benzamide] it was 1.2 nM; in that of `C[C@@H](O)CNC(=O)c1cccc(S(=O)(=O)Cc2c(O[C@H](Cn3ccnc3)c3ccccc3)ccc3c2CCCC3=O)c1` [Compound 204, N-[(2R)-2-Hydroxypropyl]-3-{[(2-{[(1S)-2-(1H-imidazol-1-yl)-1-phenylethyl]oxy}-5-oxo-5,6,7,8-tetrahydro-1-naphthalenyl)methyl]sulfonyl}benzamide], 0.65 nM. Regarding `C=CCNC(=O)c1cccc(S(=O)(=O)Cc2c(O[C@H](Cn3ccnc3)c3ccccc3)ccc3c2CCCC3=O)c1` [Compound 205, N-Allyl-3-{[(2-{[(1S)-2-(1H-imidazol-1-yl)-1-phenylethyl]oxy}-5-oxo-5,6,7,8-tetrahydro-1-naphthalenyl)methyl]sulfonyl}benzamide], the IC50 amounted to 0.2 nM.

With `C=CCNC(=O)c1ccc(S(=O)(=O)Cc2c(O[C@H](Cn3ccnc3)c3ccccc3)ccc3c2CCCC3=O)cc1` [Compound 206, N-Allyl-4-{[(2-{[(1S)-2-(1H-imidazol-1-yl)-1-phenylethyl]oxy}-5-oxo-5,6,7,8-tetrahydro-1-naphthalenyl)methyl]sulfonyl}benzamide], the IC50 came out at 0.8 nM. In the case of `C=CCNC(=O)c1ccccc1S(=O)(=O)Cc1c(O[C@H](Cn2ccnc2)c2ccccc2)ccc2c1CCCC2=O` [Compound 207, N-Allyl-2-{[(2-{[(1S)-2-(1H-imidazol-1-yl)-1-phenylethyl]oxy}-5-oxo-5,6,7,8-tetrahydro-1-naphthalenyl)methyl]sulfonyl}benzamide] it was 0.2 nM. Consider `C=CCNC(=O)c1ccccc1SCc1c(O[C@H](Cn2ccnc2)c2ccccc2)ccc2c1CCCC2=O` [Compound 208, N-Allyl-2-{[(2-{[(1S)-2-(1H-imidazol-1-yl)-1-phenylethyl]oxy}-5-oxo-5,6,7,8-tetrahydro-1-naphthalenyl)methyl]sulfanyl}benzamide], for which the concentration for half-maximal inhibition (IC50) was 0.2 nM. Then `C=CCNC(=O)c1ccc(SCc2c(O[C@H](Cn3ccnc3)c3ccccc3)ccc3c2CCCC3=O)cc1` [Compound 209, N-Allyl-4-{[(2-{[(1S)-2-(1H-imidazol-1-yl)-1-phenylethyl]oxy}-5-oxo-5,6,7,8-tetrahydro-1-naphthalenyl)methyl]sulfanyl}benzamide], with 0.2 nM.

Consider `C=CCNC(=O)c1cccc(SCc2c(O[C@H](Cn3ccnc3)c3ccccc3)ccc3c2CCCC3=O)c1` [Compound 210, N-Allyl-3-{[(2-{[(1S)-2-(1H-imidazol-1-yl)-1-phenylethyl]oxy}-5-oxo-5,6,7,8-tetrahydro-1-naphthalenyl)methyl]sulfanyl}benzamide], for which the half-maximal inhibitory concentration (IC50) was 0.2 nM. Then `C#CCNC(=O)c1ccccc1SCc1c(O[C@H](Cn2ccnc2)c2ccccc2)ccc2c1CCCC2=O` [Compound 211, 2-{[(2-{[(1S)-2-(1H-Imidazol-1-yl)-1-phenylethyl]oxy}-5-oxo-5,6,7,8-tetrahydro-1-naphthalenyl)methyl]sulfanyl}-N-(2-propynyl)benzamide], with 0.2 nM. In the case of `C#CCNC(=O)c1ccc(SCc2c(O[C@H](Cn3ccnc3)c3ccccc3)ccc3c2CCCC3=O)cc1` [Compound 212, 4-{[(2-{[(1S)-2-(1H-Imidazol-1-yl)-1-phenylethyl]oxy}-5-oxo-5,6,7,8-tetrahydro-1-naphthalenyl)methyl]sulfanyl}-N-(2-propynyl)benzamide] it was 0.2 nM. Then `C#CCNC(=O)c1cccc(SCc2c(O[C@H](Cn3ccnc3)c3ccccc3)ccc3c2CCCC3=O)c1` [Compound 213, 3-{[(2-{[(1S)-2-(1H-Imidazol-1-yl)-1-phenylethyl]oxy}-5-oxo-5,6,7,8-tetrahydro-1-naphthalenyl)methyl]sulfanyl}-N-(2-propynyl)benzamide], with 0.2 nM; and `C#CCNC(=O)c1ccc(S(=O)(=O)Cc2c(O[C@H](Cn3ccnc3)c3ccccc3)ccc3c2CCCC3=O)cc1` [Compound 214, 4-{[(2-{[(1S)-2-(1H-Imidazol-1-yl)-1-phenylethyl]oxy}-5-oxo-5,6,7,8-tetrahydro-1-naphthalenyl)methyl]sulfonyl}-N-(2-propynyl)benzamide], with 0.37 nM. For the molecule `C#CCNC(=O)c1cccc(S(=O)(=O)Cc2c(O[C@H](Cn3ccnc3)c3ccccc3)ccc3c2CCCC3=O)c1` [Compound 215, 3-{[(2-{[(1S)-2-(1H-Imidazol-1-yl)-1-phenylethyl]oxy}-5-oxo-5,6,7,8-tetrahydro-1-naphthalenyl)methyl]sulfonyl}-N-(2-propynyl)benzamide], the IC50 amounted to 0.2 nM. As to `C#CCNC(=O)c1ccccc1S(=O)(=O)Cc1c(O[C@H](Cn2ccnc2)c2ccccc2)ccc2c1CCCC2=O` [Compound 216, 2-{[(2-{[(1S)-2-(1H-Imidazol-1-yl)-1-phenylethyl]oxy}-5-oxo-5,6,7,8-tetrahydro-1-naphthalenyl)methyl]sulfonyl}-N-(2-propynyl)benzamide], the IC50 came to 0.4 nM. Then `O=C(NC1CCCC1)c1ccc(S(=O)(=O)Cc2c(O[C@H](Cn3ccnc3)c3ccccc3)ccc3c2CCCC3=O)cc1` [Compound 217, N-Cyclopentyl-4-{[(2-{[(1S)-2-(1H-imidazol-1-yl)-1-phenylethyl]oxy}-5-oxo-5,6,7,8-tetrahydro-1-naphthalenyl)methyl]sulfonyl}benzamide], with 0.2 nM; and `O=C(NC1CCCC1)c1cccc(S(=O)(=O)Cc2c(O[C@H](Cn3ccnc3)c3ccccc3)ccc3c2CCCC3=O)c1` [Compound 218, N-Cyclopentyl-3-{[(2-{[(1S)-2-(1H-imidazol-1-yl)-1-phenylethyl]oxy}-5-oxo-5,6,7,8-tetrahydro-1-naphthalenyl)methyl]sulfonyl}benzamide], with 0.2 nM; and `O=C(NC1CCCC1)c1ccccc1S(=O)(=O)Cc1c(O[C@H](Cn2ccnc2)c2ccccc2)ccc2c1CCCC2=O` [Compound 219, N-Cyclopentyl-2-{[(2-{[(1S)-2-(1H-imidazol-1-yl)-1-phenylethyl]oxy}-5-oxo-5,6,7,8-tetrahydro-1-naphthalenyl)methyl]sulfonyl}benzamide], with 0.47 nM. Then `O=C(NC1CCCC1)c1ccc(SCc2c(O[C@H](Cn3ccnc3)c3ccccc3)ccc3c2CCCC3=O)cc1` [Compound 220, N-Cyclopentyl-4-{[(2-{[(1S)-2-(1H-imidazol-1-yl)-1-phenylethyl]oxy}-5-oxo-5,6,7,8-tetrahydro-1-naphthalenyl)methyl]sulfanyl}benzamide], with 0.2 nM.
